The values that follow come from patent US20260124215A1, “METHODS OF TREATMENT OF INTESTINAL INFECTIONS” (THE FRANCIS CRICK INSTITUTE LIMITED, priority 2022, published 2026).

Assay [1] relates to Cryptosporidium parasites. The experiment in a line: Lapaquistat/Lovastatin combination in Cryptosporidium-infected HCT-8 cells (infection ratio, Opera Phenix). The class given is cell-based. To be noted: HCT-8, 48 hours of infection, infection ratio = number of parasites/number of host cells, drug alone, read-out: IC50 (ability to limit Cryptosporidium growth). Here is the method:
Intestinal epithelial cells (HCT-8) were infected with Cryptosporidium parasites and treated with increasing concentrations of Lapaquistat acetate or Lovastatin, either alone or in combination. After 48 hours of infection, cells were then fixed and stained with a lectin that specifically marks parasites and a Hoechst dye that specifically labels DNA. Cells and parasites were then visualized with an Opera Phenix imaging microscope and infection ratio was calculated as number of parasites/number of host cells.

In assay [2] the test system is Cryptosporidium. To be noted: malnourished and immunocompromised patients; cited from earlier work.
The test system of assay [3] is Cryptosporidium parvum. The experiment in a line: In vitro IC50 curves in Cryptosporidium-infected HCT-8 intestinal epithelial cell monolayers (imaging of total and female parasites). The class given is cell-based. To be noted: infected intestinal epithelial cells; development measured by % female parasites in total parasites; figure legends. Here is the method:
HCT-cells (ATCC; CCL-244) were seeded in a 96-well plate at a density of 30,000 cells/well in complete media (RPMI with 10% FCS) and allowed to grow for 48 hours. Cryptosporidium parvum oocysts (Bunchgrass Farms; Dreary Idaho, USA) were prepared for infection by bleach treating (1% sodium hypochlorite) on ice for 5 minutes to remove bacterial contaminants, followed by a wash step and incubation in 0.75% sodium taurocholate for 10 minutes at 37° C. to trigger excystation. Oocysts were resuspended in infection media (RPMI with 1% FCS) and added to cells in 100 uL media (20,000 oocysts/well). A 10 mM solution of lapaquistat acetate (MedChem Express; Cat. No. HY-16274-1 mg) was created using DMSO as the solvent. From this stock, a half-logarithmic (3.16-fold) dilution series was created in infection media, at 2× the intended final concentration. 3 hours post-infection, 100 uL of each drug dilution was added to the wells. Each drug concentration comprised 6 technical replicates. […] The plate was then imaged using a Cytation cell imaging multimode reader (BioTek) to count host nuclei, total number of parasites, and the number of female parasites among them. […]

With `CC[C@H](C)C(=O)O[C@H]1C[C@@H](C)C=C2C=C[C@H](C)[C@H](CC[C@@H]3C[C@@H](O)CC(=O)O3)[C@H]21` [Lovastatin], the IC50 in assay [1] turned out to be 4.1 µM.
With `CC(=O)Oc1ccccc1C(=O)Nc1ncc([N+](=O)[O-])s1` [nitazoxanide], the efficacy in patients entry in assay [2] was “limited efficacy”.
For `F/C(COc1ccc2c(c1)[nH]c1ccccc12)=C1/CN2CCC1CC2` [YM-53601], the “efficacy against parasite growth and parasite development” value in assay [3] is “show efficacy”.

The term IC50 denotes the midpoint of a concentration-inhibition curve.
